Experimental findings from patent publication US8697747B2, “Enhancing coagulation or reducing fibrinolysis” (THe UAB Research Foundation, priority 2009, dated 2014) are described below.

The experiment concerns pooled normal plasma. Nature of the experiment: CLSM thrombelastography with tPA in undiluted and 30% diluted plasma. The experiment is classed as biochemical, human. Conditions: tPA 100 IU/mL, 100 μM CORM-2, median, n=8. The source says:
Plasma and volume expanders. Pooled normal plasma (George King Bio-Medical, Overland Park, Kans.) anticoagulated with sodium citrate was utilized for experimentation. […] The volume expanders tested were 0.9% NaCl (Abbott Laboratories, North Chicago, Ill.; also designated as NS) and 6% hydroxylethyl starch (HES) in 0.9% NaCl (VOLUVEN®, average molecular weight 130 kDa, 0.4 degree of substitution, C2:C6 ratio of substitution 11.2; Fresenius Kabi, Bad Homburg, Germany; also referred to as VOL).
Plasma sample composition of experiments with tissue-type plasminogen activator addition. As in the first series of experiments, the final volume of plasma sample mixtures was 359.6 μL. Sample composition consisted of 316 μL of plasma/volume expander, 10 μL of tissue factor reagent (0.1% final concentration), 3.6 μL of DMSO without or with CORM-2 (100 μM final concentration), 10 μL of tissue-type plasminogen activator (tPA, 580 U/μg, Genentech, Inc., San Francisco, Calif.) diluted with 10 mM potassium phosphate buffer (pH 7.4) for a final activity of 100 IU/mL, and 20 μL of 200 mM CaCl2. As with tissue factor reagent, tPA stock was kept on ice prior to use and was remade every two hours. Plasma was diluted 0% or 30% with NS or VOL (n=8 per condition).
Clot Lifespan Model (CLSM) Analyses. Plasma sample mixtures were placed in a disposable cup in a computer-controlled THROMBELASTOGRAPH® hemostasis system (Model 5000, Haemoscope Corp., Niles, Ill.), with addition of CaCl2 as the last step to initiate clotting. In the first series of experiments, no tPA was added, so data were collected until clot strength (maximum amplitude) was stable. In the second series of experiments which in tPA was added, data were collected until clot lysis time occurred. […] Additional elastic modulus-based parameters were determined and the nomenclature used to describe these phenomena is as follows: Time to maximum rate of thrombus generation (TMRTG): This is the time interval (sec) observed prior to maximum speed of clot growth. Maximum rate of thrombus generation (MRTG): This is the maximum velocity of clot growth observed (dynes/cm^2/sec). Total Thrombus Generation (TTG): This is the total area under the velocity curve during clot growth (dynes/cm^2), representing the amount of clot strength generated during clot growth. Time to maximum rate of lysis (TMRL): This is the time interval (sec) measured from the time of maximum strength to the time when the velocity of clot disintegration is maximal. Maximum Rate of Lysis (MRL): This is the maximum velocity of clot disintegration observed (−dynes/cm^2/sec). Area of Clot Lysis (ACL): This is the total area under the velocity curve during clot disintegration (−dynes/cm^2), representing the amount of clot strength lost during clot disintegration. As this model involves complete fibrinolysis, TTG is equivalent to ACL, so ACL was not presented as it provides no additional information.
Statistical Analyses. Data obtained from pooled normal plasma not exposed to tPA were graphically represented with commercially available software (SigmaPlot 11.0, Systat Software, Inc., San Jose, Calif.), and kinetic modeling of thrombelastographic data performed with the same software. Analyses of the effects of hemodilution and CORM-2 on CLSM variables obtained from pooled normal plasma were conducted using Kruskal-Wallis one way analysis of variance with Student-Newman-Keuls post-hoc test. […] These analyses were conducted with the same commercially available software (SigmaPlot 11.0). A P value of <0.05 was considered significant.

Turning to `[C-]#[O+].[C-]#[O+].[C-]#[O+].[C-]#[O+].[C-]#[O+].[C-]#[O+].[Cl][Ru][Cl].[Cl][Ru][Cl]` [CORM-2, tricarbonyldichlororuthenium (II) dimer], for the setting “plasma diluted 30% with NS”, the “CGT (clot growth time)” value is recorded as 8.0 min, the “CLS (clot lifespan)” value is reported as 38.7 min, the “CLT (clot lysis time)” value was determined as 31.5 min and the “MRL (maximum rate of lysis)” value is listed as −1.9 −dynes/cm^2/sec. In addition, for the setting “plasma diluted 30% with NS”, the “MRTG (maximum rate of thrombus generation)” value turned out to be 11.2 dynes/cm^2/sec, the “TMRL (time to maximum rate of lysis)” value came out at 23.4 min, the “TMRTG (time to maximum rate of thrombus generation)” value (shortened to “TMRTG”) is reported as 2.00 min and the “TTG (total thrombus generation)” value is on record as 206 dynes/cm^2. In addition, where the note is “plasma diluted 30% with VOL”, the “CGT (clot growth time)” value came to 2.2 min, the “CLS (clot lifespan)” value was found to be 10.0 min, the “CLT (clot lysis time)” value stood at 8.0 min and the “MRL (maximum rate of lysis)” value is −0.9 −dynes/cm^2/sec. Moreover, under “plasma diluted 30% with VOL”, the “MRTG (maximum rate of thrombus generation)” value was 3.8 dynes/cm^2/sec, the “TMRL (time to maximum rate of lysis)” value is recorded as 5.2 min, the “TMRTG” value stood at 2.0 min and the “TTG (total thrombus generation)” value stood at 62 dynes/cm^2. Also, under “undiluted plasma”, the “CGT (clot growth time)” value came to 8.1 min, the “CLS (clot lifespan)” value was found to be 31.6 min, the “CLT (clot lysis time)” value came out at 24.3 min and the “MRL (maximum rate of lysis)” value is listed as −3.0 −dynes/cm^2/sec. Also, where the note is “undiluted plasma”, the “MRTG (maximum rate of thrombus generation)” value turned out to be 13.9 dynes/cm^2/sec, the “TMRL (time to maximum rate of lysis)” value was found to be 17.7 min, the “TMRTG” value was 2.1 min and the “TTG (total thrombus generation)” value is 285 dynes/cm^2.
